We go through six compounds from patent US8101792B2, “Compounds isolated from Antrodia cinnamomea and use thereof” (Simpson Biotech Co., Ltd., priority 2007, dated 2012).

Like-named read-outs stand apart in the source and are kept apart here.

For orientation: bioavailability means dose-corrected exposure relative to a reference, in per cent. As a reminder, the AUC is the area under the concentration-time curve, a measure of exposure. The term clearance denotes the volume of plasma or blood freed of the substance per unit of time. Lower therefore signals inefficient removal. The term half-life denotes the time needed for the level to fall by half in the phase considered. Read a high half-life as slow decline.

Series [1] can be described thus: Conversion of metabolites in bile samples diluted with water and incubated at 37° C. The series is classed as physicochemical. As to conditions: bile diluted by same volume water, 37° C. bath for 12 h.
Experimental: (§1) Thawed urine and bile samples (0.5 ml) dissolved in 3 volumes of acetonitrile, and then centrifuged at 8000×g for 15 min. The supernatant was passed through a 0.45 μm Millipore syringe filter (Nihon Millipore, Tokyo, Japan) for LC/MS-MS analysis. […] After treating the bile sample as described above, the amount of M1 was calculated by PAD-HPLC.
A further series in a line: in vivo. The note with it: male, Wistar, rat.
Series [2] has as its system rat (RIB) or human (HIB) intestinal bacteria. The series can be described thus: Metabolism of Antrodin C and metabolites by intestinal bacteria in vitro. The series is classed as in vitro ADME. The method, then: Mixtures of rat (RIB) or human (HIB) intestinal bacteria (5 g each) prepared as described (Xie L H, et al. 2003 Biol Pharm Bull 51: 378-384), together with Antrodin C (5 mg) dissolved in Tween 20 (0.5 ml), M1 (5 mg) dissolved in water (1.0 ml) or rat bile samples (10 ml) with metabolites M2-M4, which were collected after oral administration of Antrodin C, were added to GAM broth (50 ml), and anaerobically incubated at 37° C. for 3 d. The incubation mixture was extracted with 3 volumes of acetonitrile, and then passed through a 0.45 μm filter. […] Moreover, the metabolites (M2-M4) in bile samples, which were collected after oral administration of Antrodin C in rats, could absolutely transferred to M1 after 30 min incubation.

Series [3] can be described thus: Identification of metabolites in rat feces, bile, plasma and urine by LC/MS-MS after administration of Antrodin C. Type of series: in vivo. Here is the method: The metabolites in feces, bile and plasma were analyzed by LC/MS-MS. The LC/MS-MS equipment comprised a column containing TSK gel ODS-80 Ts (particle size, 5 μm; 4.6×150 mm i.d., Tosoh Co., Tokyo, Japan). Samples were eluted through the column with 0.1% AcOH and acetonitrile (35:65) at a flow rate of 1 ml/min at 30° C. The standard negative ion mode was selected under the following conditions: full scan range, 50-800 m/z; scan resolution, 13000 m/z/sec; nebulizer, 50.0 psi; dry gas, 10.0 l/min; dry temperature, 360° C. Full scanning in the region of m/z 50 to 600 assigned several peaks to Antrodin C and the metabolites in the […] when compared with those of blank samples (FIG. 3). […] Comparing to standard materials and synthesized compounds, the peak in the MS profile at m/z 328 [M-H]^− with retention time (tR)=8.2 min was derived from Antrodin C (MW 329), and M1 (m/z 331 [M-H]^−, tR=4.4 min) was dicarboxylic acid by hydrolysis of Antrodin C; M2 and M3 (m/z 345 [M-H]^−, tR=7.7 and 8.4 min), which were 14 larger than those of M1, were two kinds of monomethyl esters of M1; M4 (m/z 313 [M-H]^−, tR=21.6 min) was Antrodin A and M5 (m/z 312 [M-H]^−, tR=11.5 min) was Antrodin B. The structures of Antrodin C and its metabolites were shown in FIG. 5.

A short description of series [4]: Pharmacokinetics of M1 in rat bile after P.O. and I.V. administration of Antrodin C (PAD-HPLC). As to conditions: for Accumulated excretion ratio: rat bile.
Experimental: (§2) Male Wistar rats (9 weeks old) purchased from SLC Co. (Hamamastu, Japan), were fed with standard laboratory chow for one week, fasted overnight and given free access to water before drug administration. […] The animals were light anesthetized with diethyl ether during surgical procedures. Bile samples (n=5) was collected by cannulating a polyethylene tube (PE-10) into the rat bile duct at intervals of 0, 0.25, 0.5, 1, 2, 4, 8, 12, 24, 36 and 48 h after oral (50 mg/kg) and intravenous (10 mg/kg) administration of Antrodin C. […] The blood samples were centrifuged at 8000×g for 15 min to separate the plasma, and then all samples were stored at −20° C. for later analysis.
as §1
(§3) The concentration-time data in rat bile (n=5) were computer fitted using a program of Pharmacokineitics 3p97 edited by the Mathematics Pharmacological Committee, Chinese Pharmacological Society. The following pharmacokinetic parameters were obtained: half-time of absorption phase (t1/2 (Kα)) and half-time of elimination phase (t1/2 (Kβ)) in the bile samples after oral administration of Antrodin C at the dose of 50 mg/kg. The area under the concentration-time curve (AUC(i.v.) and AUC(p.o.)) was calculated by the statistical moment method of non-compartmental pharmacokinetic analysis. And then clearance (Clm, b) and absolute bioavailability (Fm, b) were calculated by the equations as following: Clm, b (ml/h·kg)=Dose(i.v.)/AUC(i.v.) and Fm, b (%)=AUC(p.o.)·Dose(i.v.)/[AUC(i.v.)·Dose(p.o.)]. Data were expressed mean and standard deviation (S.D.) for each group.
Another series deals with LLC cells. The note with it: cited from earlier work.
Series [5] relates to hepatitis model induced by LPS. Kind of series: Hepatitis model induced by LPS. As to conditions: in vivo.

Experimental for in vivo: as §2, §1, §3

Consider `CC(C)=CCOc1ccc(C2=C(CC(C)C)C(=O)OC2=O)cc1` [M4, Antrodin A], for which the “Conversion in diluted bile” value in series [1] is given as “thoroughly converted to M1”.

`CC(C)=CCOc1ccc(/C(C(=O)O)=C(\CC(C)C)C(=O)O)cc1` [M1, (2Z)-2-isobutyl-3-{4-[(3-methylbut-2-en-1-yl)oxy]-phenyl}but-2-enedioic acid] displayed a bioavailability in “in vivo” of 19.4%. Also, the AUC in the series “in vivo” (iv, 10 mg/kg) is 1680 µg·h/mL; in “in vivo” (po, 50 mg/kg), 1610 µg·h/mL. Further, the clearance in “in vivo” (iv, 10 mg/kg) is 5.96 mL/h/kg. Further, the half-life in the series “in vivo” (po, 50 mg/kg, t1/2 (kα), half-time of absorption phase) is 0.95 h; in “in vivo” (po, 50 mg/kg, t1/2 (kβ), half-time of elimination phase) it was 12.6 h. Also, in series [2] (GAM broth, anaerobic incubation at 37° C. for 3 d), the “Metabolism by intestinal bacteria” value is “not metabolized”.

For the compound `COC(=O)/C(=C(/CC(C)C)C(=O)O)c1ccc(OCC=C(C)C)cc1` [M2, (2Z)-2-isobutyl-3-{4-[(3-methylbut-2-en-1-yl)oxy]phenyl}but-2-enedioic acid 4-methyl ester], the “Conversion in diluted bile” value in series [1] is “thoroughly converted to M1”.

For `COC(=O)/C(CC(C)C)=C(\C(=O)O)c1ccc(OCC=C(C)C)cc1` [M3, (2Z)-2-isobutyl-3-{4-[(3-methylbut-2-en-1-yl)oxy]phenyl}but-2-enedioic acid 1-methyl ester], the “Conversion in diluted bile” value in series [1] was “thoroughly converted to M1”.

For `CC(C)=CCOc1ccc(C2=C(CC(C)C)C(=O)N(O)C2=O)cc1` [Antrodin C], in series [3] (rat feces after administration of Antrodin C), the “Metabolites found in feces” value was “M1-M3, M5 with original Antrodin C”. For the same compound, in series [3] (rat plasma after administration of Antrodin C), the “Metabolites found in plasma” value was “M1 with another unknown peak”. The “Metabolites found in urine” value in series [3] (rat urine after administration of Antrodin C) is recorded as “neither metabolite nor Antrodin C”. Further, the “Metabolism by intestinal bacteria” value in series [2] is “converted to M5”. Also, the Accumulated excretion ratio in series [4] (I.V. 10 mg/kg Antrodin C) came out at 56.85±13.40; in series [4] (P.O. 50 mg/kg Antrodin C) it was 5.46±1.62%. For the same compound, the Main excretion pathway result in series [4] (rats) is on record as “bile-feces pathway”. In the series on LLC cells, the “Cytotoxic activity against LLC cells” value is “confirmed”. Further, the “Effect against hepatitis model induced by LPS” value in series [5] is “protective effect”.

Regarding `CC(C)=CCOc1ccc(C2=C(CC(C)C)C(=O)NC2=O)cc1` [M5, Antrodin B], the “Cytotoxic activity against LLC cells” value in the series on LLC cells was “confirmed”.
